Experimental findings from US20060160906A1, “Polyamine analogs as therapeutic agents for ocular diseases” (priority 2004, published 2006) are described below.

One data set deals with retinal structure. The data set can be described thus: Retinal structure in hematoxylin and eosin stained retinal sections. The format is in vivo, mice. The protocol: The remaining 10 mice were given an intravitreous injection of 20 μg of CGC-11144 in one eye and vehicle in the fellow eye on days 7 and 10 and then CNV area was measured at each rupture site at 14 days after laser (n=30 in each group). […] After 3 days, ERGs were performed as described in Methods. […] (In FIGS. 3C-3F, retinal sections were stained with hematoxylin and eosin; FIG. 3C and FIG. 3E, 40×; FIG. 3D and FIG. 3F, 100×.)

The next data set relates to CNV lesions. The data set can be described thus: TUNEL staining for apoptosis within CNV lesions. The data set is classed as in vivo, C57BL/6 mice. Particulars: periocular 200 μg on days 7 and 8 after laser. The protocol:
On days 7 and 8 after laser-induced rupture of Bruch's membrane, adult female C57BL/6 mice received a periocular injection of 0.2 mg of CGC-11144 or vehicle and then they were euthanized. Eyes were embedded in OCT and 10 μm serial sections were cut through CNV lesions and fixed with 1% paraformaldehyde for 10 minutes at room temperature. TUNEL staining was done using an ApopTag Fluorescein Red Kit (Intergen, Purchase, N.Y.) following the manufacturer's instructions. Adjacent sections were stained for GSA to visualize vascular cells on some sections; TUNEL staining was done to identify cell undergoing apoptosis on adjacent sections.

Data set [1] relates to retinal function (ERG a- and b-wave amplitudes). The data set can be described thus: Retinal function assessed by electroretinograms (ERG). The data set is classed as in vivo, C57BL/6 mice. Here is the method:
Adult female C57BL/6 mice were given an intravitreous injection of 2, 4, or 20 μg of CGC-11144 in one eye and an injection of vehicle in the fellow eye and after 3 days ERGs were recorded as previously described (Okoye et al., J. Neuosci. 23: 4164-4172 (2003)). ERGs were also performed after daily periocular injections of 0.2 mg of CGC-11144 for 2 weeks. Mice were dark-adapted for a standardized 12-hour period overnight and ERG recordings were performed using the Espion ERG Diagnosys (Diagnosys LLL, Littleton, Mass.). All manipulations were done with dim red light illumination. Beginning the same time each morning, mice were anesthetized by ip injection of 25 μl/g body weight of Avertin (Aldrich, Milwaukee, Wis.) diluted 1:39 in PBS. Corneas were anesthetized with a drop of 0.5% proparacaine hydrochloride (Alcon Labs) and pupils were dilated with 1% tropicamide. Mice were placed on a pad heated to 39° C. and platinum electrodes were placed on each cornea after application of gonioscopic prism solution (Alcon Labs). The reference electrode was placed subcutaneously in the anterior scalp between the eyes, and the ground electrode was inserted into the tail. Electrode impedance was balanced for each eye pair measured. The head of the mouse was placed in a standardized position in a Ganzfeld bowl illuminator that assured equal illumination of the eyes. Simultaneous recordings from both eyes were made for eleven intensity levels of white light ranging from −3.00 to +1.40 log cd-s/m^2. The Espion ERG machine measures the ERG response six times at each flash-intensity and records the average value.

The mark [2] stands for this setting: daily periocular 200 μg for 14 days.
The mark [3] stands for this setting: intravitreous 2 μg, after 3 days.

“Also recorded” adds a separate entry of the source.

For the compound `CCNCCCCNCCCCNCCCCNCCCCNC/C=C/CNCCCCNCCCCNCCCCNCCCCNCC.Cl.Cl.Cl.Cl.Cl.Cl.Cl.Cl.Cl.Cl` [CGC-11144], the appearance of retinas result in the data set with retinal structure (setting [2]) is on record as “normal-appearing retinas”. Further, in the data set with retinal structure (intravitreous 20 μg), the “retinal structure / morphology” value is on record as “markedly disrupted; also recorded: substantial disruption of the morphology of the retina”. The “TUNEL-stained (apoptotic) cells within CNV lesions” value in the data set on CNV lesions is “many TUNEL-stained cells within CNV lesions; also recorded: several red TUNEL-stained nuclei located within the CNV lesion”. For the same compound, the “ERG a- and b-wave amplitudes vs vehicle” value in data set [1] (setting [2]) is “normal ERG a- and b-wave amplitudes; also recorded: no difference in mean a-wave or b-wave amplitudes”. Moreover, in data set [1] (setting [3]), the ERG a-wave amplitudes result is given as “only mildly decreased at highest flash intensities” and the ERG b-wave amplitudes result is on record as “profoundly reduced at all flash intensities”. Besides, in data set [1] (intravitreous 10 μg, after 3 days), the ERG amplitudes result is “striking decrease in ERG amplitudes”. For the same compound, the “ERG a- and b-wave amplitudes” value in data set [1] (intravitreous 20 μg, after 3 days) is given as “dramatically reduced”. Besides, the “ERG b-wave amplitudes compared to PBS” value in data set [1] (intravitreous 2, 4, or 20 μg, after 3 days, p<0.05) is recorded as “significant decrease in b-wave amplitudes”. Also, the “ERG a-wave amplitudes compared to PBS” value in data set [1] (intravitreous 4 or 20 μg, after 3 days, p<0.05) is listed as “significant decrease in a-wave amplitudes”.
